We go through 36 molecules from patent publication US20230055705A1, “SUBSTITUTED THIOPHENE CARBOXAMIDES AND DERIVATIVES THEREOF” (Bayer Aktiengesellschaft, priority 2019, published 2023).

Molecules are shown by their SMILES.

The data set is described as follows: LogP by HPLC on reversed phase columns (EEC directive 79/831 Annex V.A8). The data set is classed as physicochemical. Here is the method:
In the above tables, measurement of LogP values was performed according to EEC directive 79/831 Annex V.A8 by HPLC (High Performance Liquid Chromatography) on reversed phase columns with the following methods: • ^[a]
Calibration was done with straight-chain alkan2-ones (with 3 to 16 carbon atoms) with known LogP values (measurement of LogP values using retention times with linear interpolation between successive alkanones). Lambda-max-values were determined using UV-spectra from 200 nm to 400 nm and the peak values of the chromatographic signals.
Turning to `CN(C)C(=O)CNC(=O)c1sc(Cl)c(Cl)c1Cl` [I.065], the LogP is 2.47^[a].
The same measure for `CCSC(=O)C(NC(=O)c1sc(Cl)c(Cl)c1Cl)C(C)C` (stereo not drawn) [I.040]: 5.34^[a]; for `N#CC1(NC(=O)c2sc(Cl)c(Cl)c2Cl)CCSCC1` [I.133]: 3.72^[a]; for `COC(=O)C1(NC(=O)c2sc(Cl)c(Cl)c2Cl)CSC1` [I.080]: 3.50^[a].
Take `CC(C)(C#N)NC(=O)c1sc(Cl)c(Cl)c1Cl` [I.132]: the LogP is 3.19^[a].
Take `N#CC(Cc1ccccc1)NC(=O)c1sc(Cl)c(Cl)c1Cl` (stereo not drawn) [I.035]: the LogP is 4.13^[a].
Take `O=C(NC(CO)C(=O)O)c1sc(Cl)c(Cl)c1Cl` (stereo not drawn) [I.056]: the LogP was 1.94^[a].
For `COC(=O)C1(NC(=O)c2sc(Cl)c(Cl)c2Cl)CCOC1` (stereo not drawn) [I.076] the value was 3.00^[a].
For `CCNC(=O)SC[C@H](NC(=O)c1sc(Cl)c(Cl)c1Cl)C(=O)OC` [I.141] the value was 3.36^[a]; for `O=C(NC1CCSC1=O)c1sc(Cl)c(Cl)c1Cl` (stereo not drawn) [I.023], 3.17^[a].
The same measure for `CC(C)OC(=O)C1(NC(=O)c2sc(Cl)c(Cl)c2Cl)CCC1` [I.150]: 4.74^[a]; for `COC(=O)[C@H](Cc1ccccc1)NC(=O)[C@H](CC(=O)O)NC(=O)c1sc(Cl)c(Cl)c1Cl` [I.074]: 3.19^[a].
As for `CCOC(=O)C1(NC(=O)c2sc(Cl)c(Cl)c2Cl)CCCC1` [I.070], the LogP was 4.61^[a].
The same measure for `O=C(NC1CCCCNC1=O)c1sc(Cl)c(Cl)c1Cl` (stereo not drawn) [I.125]: 2.93^[a]; for `O=C1SCCC1NC(=S)c1sc(Cl)c(Cl)c1Cl` (stereo not drawn) [I.019]: 4.37^[a].
For `N#CC(NC(=O)c1sc(Cl)c(Cl)c1Cl)c1ccccc1` (stereo not drawn) [I.034] the value was 3.92^[a].
The same measure for `CC1(C)SC(=O)C1NC(=O)c1sc(Cl)c(Cl)c1Cl` (stereo not drawn) [I.024]: 4.04^[a]; for `NC(=S)C1(NC(=O)c2sc(Cl)c(Cl)c2Cl)CC1` [I.105]: 2.62^[a].
In the case of `CCOC(=O)[C@H](CO)NC(=O)c1sc(Cl)c(Cl)c1Cl` [I.083], the LogP is 2.78^[a].
The same measure for `CCOC(=O)CN(OC)C(=O)c1sc(Cl)c(Cl)c1Cl` [I.018]: 3.64^[a]; for `COC(=O)C1(NC(=O)c2sc(Cl)c(Cl)c2Cl)CCOCC1` [I.071]: 3.00^[a].
For `COC(=O)CC(C)NC(=O)c1sc(Cl)c(Cl)c1Cl` (stereo not drawn) [I.135] the value was 3.64^[a]; for `CCOC(=O)C(CC1CC1)NC(=O)c1sc(Cl)c(Cl)c1Cl` (stereo not drawn) [I.058], 4.81^[a].
The same measure for `CN(C)C(=S)CNC(=O)c1sc(Cl)c(Cl)c1Cl` [I.129]: 3.68^[a].
Turning to `COC(=O)C1(NC(=O)c2sc(Cl)c(Cl)c2Cl)CC(F)(F)C1` [I.088], the LogP was 3.65^[a].
For `CCSC(=O)CNC(=O)c1sc(Cl)c(Cl)c1Cl` [I.036] the value was 3.75^[a].
The same measure for `COC(=O)C1(NC(=O)c2sc(Cl)c(Cl)c2Cl)CCC(F)(F)CC1` [I.072]: 3.99^[a]; for `N#CC1(NC(=O)c2sc(Cl)c(Cl)c2Cl)CC1` [I.032]: 2.88^[a]; for `CCOC(=O)C1(NC(=S)c2sc(Cl)c(Cl)c2Cl)CC1` [I.037]: 4.61^[a].
For `O=C(N[C@H]1CCOC1=O)c1sc(Cl)c(Cl)c1Cl` [I.121] the value was 2.49^[a]; for `CC(C)(C)OC(=O)C1(NC(=O)c2sc(Cl)c(Cl)c2Cl)CCC1` [I.097], 5.28^[a]; for `CONC(=O)C1(NC(=O)c2sc(Cl)c(Cl)c2Cl)CC1` [I.055], 2.14^[a].
`CCOC(=O)C1(CNC(=O)c2sc(Cl)c(Cl)c2Cl)CC1` [I.045]: the LogP was 4.27^[a].
For `CN(C)C(=S)C1(NC(=O)c2sc(Cl)c(Cl)c2Cl)CC1` [I.115] the value was 3.20^[a]; for `CCOC(=O)CN(C(=O)c1sc(Cl)c(Cl)c1Cl)C1CC1` [I.116], 3.78^[a].
The same measure for `O=C(CNC(=O)c1sc(Cl)c(Cl)c1Cl)NO` [I.148]: 1.70^[a].
